Experimental data from patent publication US20070003531A1, “Methods for improving immunotherapy by enhancing survival of antigen-specific cytotoxic T lymphocytes” (University of Connecticut, priority 2005, published 2007).
Entries after “also recorded” stand apart in the source; their conditions may differ.

Tests used:
[1] = tested on: MART-127-35 epitope specific CTLs; test: Chromium release microcytotoxicity assay; assay type: cell-based; conditions: % specific lysis of peptide loaded T2 cells; inhibitor 25 μM
[2] = tested on: c-jun phosphorylation/activation in Jurkat T cells; test: JNK activation assay in PMA/ionomycin stimulated Jurkat cells; assay type: cell-based, human; conditions: PMA (10 ng/ml)/ionomycin (0.5 μM); SP600125 25 μM
Procedure: FIG. 1. […] (A) Effect of the JNK inhibitor SP600125 on AICD in the MART-127-35 epitope specific CTL. Histogram represents FACS analysis of the percent of MART-127-35 epitope specific CTLs that were tetramer positive and annexin negative after restimulation with MAGE-3271-279 control peptide (M3) pulsed T2 cells or MART-127-35 peptide (M1) pulsed T2 cells either alone or re-stimulated after pre-incubation with JNK inhibitor SP600125, p38-kinase inhibitor SB203580, ERK1/2 inhibitor PD98059 or caspase-inhibitor z-VAD-fink. MAGE-3271-279. (B) JNK activation results in phosphorylation of c-Jun during AICD in CTL that is blocked by SP600125. Immunoblots show analyses of CTL extracts probed with anti-phosphor-c-Jun, anti-c-Jun, and anti-actin antibodies. […] (i) Jurkat cells were treated with PMA+ionomycin in the absence or presence of SP600125 and JNK activation (c-Jun phosphorylation) was assessed with anti-phospho-c-Jun antibody. […] (ii) Jurkat cells were treated with Staurosporine for 1 and 4 hrs in the absence (S) or presence of caspase inhibitor, z-VAD-fmk (CI), JNK inhibitor, SP600125 (SP) or ERK1/2 inhibitor PD98059 (PD) and cleavage of PARP was detected by immunoblotting, using actin as a loading control. […] Percent annexin positive cells in all samples were quantified by FACS analysis and shown below the blot […]

[3] = tested on: MART-127-35 epitope specific human primary CTL; test: AICD induction and quantitation in epitope specific primary CTL (tetramer/annexin V FACS); assay type: cell-based; conditions: pre-incubation about 45 min; restimulation with MART-127-35 peptide pulsed T2 cells; kinase inhibitors 25 μM, z-VAD-fmk 100 μM, Fc chimeras 10 μg/ml
Procedure: FIG. 10. Effect of external death receptor blockade and MAP kinase inhibitors on AICD in the epitope specific CTLs upon secondary encounter of the cognate epitope. The CTLs were pre-incubated at optimal concentration for about 45 min. at about 37° C. with pan caspase inhibitor z-VAD-fmk (100 μM); human Fas/Fc chimera, human TNF-RI/Fc chimera, human TRAIL-RI/Fc chimera, human TRAIL-RII/Fc chimera and human IFN-γ RI/Fc chimeric proteins (10 μg/ml); p38 kinase inhibitor SB203580, JNK inhibitor anthra[1,9-cd]pyrazol-6(2H)-one (SP600125), […] inhibitor PD98059 (25 μM). Then the pretreated as well as untreated CTLs were incubated with T2 cells either alone or loaded with peptide. About 4 hours after secondary exposure cells were stained for determining: (A) Number of tetramer^+ cells out of the CD8^+ T cells [Top panel]; number of tetramer^+/Annexin V^+ and tetramer^+/Annexin^− populations [Bottom panel]. […] (B) Effect of the MAP kinase inhibitors on IFN-γ response by the effector cells.
AICD induction and quantitation. AICD in the human primary CTL primed and expanded specifically for melanoma epitope MART-127-35 was induced by re-exposure of the CTLs to MART-127-35 peptide (1 μg/ml) as reported previously. Staurosporine mediated death was induced by exposure of CTL to 1 μM staurosporine for 4 hr. Quantitation of AICD and the effects of various inhibitors on AICD of CTLs, were carried out by annexin-V staining followed by FACS analyses as reported previously.
In test whether or not the epitope specific primary CTLs undergo AICD, the activated CTLs were exposed to peptide [1 μg/ml] loaded T2 cells (Effector: Target=100) at different time points of the cultures. Thereafter, the evidence of apoptosis was determined by flow cytometry with triple color staining (CD8, MART-127-35/HLA-A2 tetramer and annexin V) at different time points (4-18 h). Experiments were carried out in triplicate wells and significance was calculated by One-way analysis of variance (ANOVA) using Sigma Stat statistical software, Chicago, Ill.
To evaluate the effect of various agents in modulating AICD, the CTLs were pre-incubated with various compounds at optimal concentration for 45 min. at 37° C. and then exposed to T2 cells alone or loaded with peptide.

[4] = target: c-jun N-terminal kinase; conditions: cited from earlier work
[5] = tested on: c-Jun phosphorylation (JNK activation) in CTL; test: c-Jun phosphorylation in CTL during AICD (immunoblot); assay type: cell-based, human; conditions: CTL re-stimulated with Mart-127-35 peptide after pre-incubation
Procedure: FIG. 1. […] (A) Effect of the JNK inhibitor SP600125 on AICD in the MART-127-35 epitope specific CTL. Histogram represents FACS analysis of the percent of MART-127-35 epitope specific CTLs that were tetramer positive and annexin negative after restimulation with MAGE-3271-279 control peptide (M3) pulsed T2 cells or MART-127-35 peptide (M1) pulsed T2 cells either alone or re-stimulated after pre-incubation with JNK inhibitor SP600125, p38-kinase inhibitor SB203580, ERK1/2 inhibitor PD98059 or caspase-inhibitor z-VAD-fink. MAGE-3271-279. (B) JNK activation results in phosphorylation of c-Jun during AICD in CTL that is blocked by SP600125. […] (i) Jurkat cells were treated with PMA+ionomycin in the absence or presence of SP600125 and JNK activation (c-Jun phosphorylation) was assessed with anti-phospho-c-Jun antibody. […] (ii) Jurkat cells were treated with Staurosporine for 1 and 4 hrs in the absence (S) or presence of caspase inhibitor, z-VAD-fmk (CI), JNK inhibitor, SP600125 (SP) or ERK1/2 inhibitor PD98059 (PD) and cleavage of PARP was detected by immunoblotting, using actin as a loading control. […] Percent annexin positive cells in all samples were quantified by FACS analysis and shown below the blot
Immunoblot analysis. […] Proteins bound to the resin were washed three times with RIPA buffer, re-suspended in sample buffer, and analyzed by SDS-PAGE and immunoblotting.

O=C1c2ccccc2-c2n[nH]c3cccc1c23 [SP600125, anthra[1,9-cd]pyrazol-6(2H)-one]
cytotoxic function of CTLs in presence of inhibitor [1]: did not affect; also recorded: does not affect
c-Jun activation (phosphorylation) in Jurkat cells [2]: inhibitory effect; also recorded: abrogates
protection/rescue of CTL from AICD [3]: protected; also recorded: rescued a significant fraction; also recorded: capable of protecting; also recorded: blocked
Ki [4]: ~190 nM
c-Jun activation (phosphorylation) in CTL during AICD [5]: blocked
